Measurements from the OligoGym collection.
HELM strings list units from the 5' end as sugar, base in round brackets, then linkage (d deoxyribose, r ribose, m 2'-O-methyl, p phosphodiester). Strings are as the collection lists them; they lack the last nucleoside at the 3' end of the tested compound. [moe] = 2'-O-(2-methoxyethyl) (MOE); [sp] = phosphorothioate linkage; [m5C] = 5-methylcytosine

These substances were tested against SCN2A (assay: mouse, dose not given). Conditions: ASO.
In the case of “RNA1{[moe]([m5C])[sp].[moe](A)p.[moe](T)p.[moe](G)p.[moe](T)[sp].d(A)[sp].d(A)[sp].d([m5C])[sp].d([m5C])[sp].d(T)[sp].d(T)[sp].d(T)[sp].d(A)[sp].[moe](T)p.[moe](A)p.[moe]([m5C])[sp].[moe](A)}$$$$ (last 3' nucleoside missing)”, the 3 h FOB score was 0 score 0-7. Work on “RNA1{[moe]([m5C])[sp].[moe](A)p.[moe](T)p.[moe](G)p.[moe](T)p.[moe](A)[sp].d(A)[sp].d([m5C])[sp].d([m5C])[sp].d(T)[sp].d(T)[sp].d(T)[sp].d(A)[sp].d(T)[sp].[moe](A)p.[moe]([m5C])[sp].[moe](A)}$$$$ (last 3' nucleoside missing)” yielded a 3 h FOB score of 0 score 0-7. “RNA1{[moe]([m5C])[sp].[moe](A)p.[moe](T)p.[moe](G)p.[moe](T)p.[moe](A)p.d(A)[sp].d(T)[sp].d([m5C])[sp].d(A)[sp].d([m5C])[sp].d(T)[sp].d(T)[sp].d(T)[sp].d([m5C])[sp].d(A)[sp].[moe](T)p.[moe]([m5C])[sp].[moe]([m5C])}$$$$ (last 3' nucleoside missing)” showed a 3 h FOB score of 0 score 0-7. In the case of “RNA1{[moe]([m5C])[sp].[moe](A)p.[moe](T)p.[moe](G)p.[moe](T)p.[moe](A)p.d(A)[sp].d([m5C])[sp].d([m5C])[sp].d(T)[sp].d(T)[sp].d(T)[sp].d(A)[sp].d(T)[sp].d(A)[sp].d([m5C])[sp].[moe](A)p.[moe](T)[sp].[moe](T)}$$$$ (last 3' nucleoside missing)”, the 3 h FOB score was 0 score 0-7. “RNA1{[moe]([m5C])[sp].[moe](A)p.[moe](T)p.[moe](G)p.[moe](T)p.d(A)[sp].d(A)[sp].d(T)[sp].d([m5C])[sp].d(A)[sp].d([m5C])[sp].d(T)[sp].d(T)[sp].d(T)[sp].d([m5C])[sp].[moe](A)p.[moe](T)p.[moe]([m5C])[sp].[moe]([m5C])}$$$$ (last 3' nucleoside missing)” gave a 3 h FOB score of 0 score 0-7. Substance “RNA1{[moe]([m5C])[sp].[moe](A)p.[moe](T)p.[moe](G)p.[moe](T)p.d(A)[sp].d(A)[sp].d([m5C])[sp].d([m5C])[sp].d(T)[sp].d(T)[sp].d(T)[sp].d(A)[sp].d(T)[sp].d(A)[sp].[moe]([m5C])p.[moe](A)p.[moe](T)[sp].[moe](T)}$$$$ (last 3' nucleoside missing)” has a 3 h FOB score of 0 score 0-7. Work on “RNA1{[moe]([m5C])[sp].[moe](A)p.[moe](T)p.[moe](G)p.[moe]([m5C])p.[moe](A)p.d(T)[sp].d(A)[sp].d(A)[sp].d(T)[sp].d([m5C])[sp].d([m5C])[sp].d([m5C])[sp].d(A)[sp].d(T)[sp].d(T)[sp].[moe](A)p.[moe](T)[sp].[moe](A)}$$$$ (last 3' nucleoside missing)” yielded a 3 h FOB score of 0 score 0-7. With “RNA1{[moe]([m5C])[sp].[moe](A)p.[moe](T)p.[moe](G)p.[moe]([m5C])p.d(A)[sp].d(T)[sp].d(A)[sp].d(A)[sp].d(T)[sp].d([m5C])[sp].d([m5C])[sp].d([m5C])[sp].d(A)[sp].d(T)[sp].[moe](T)p.[moe](A)p.[moe](T)[sp].[moe](A)}$$$$ (last 3' nucleoside missing)” the 3 h FOB score was 0 score 0-7. Substance “RNA1{[moe]([m5C])[sp].[moe](A)p.[moe](T)p.[moe](G)p.d(T)[sp].d(A)[sp].d(A)[sp].d(T)[sp].d([m5C])[sp].d(A)[sp].d([m5C])[sp].d(T)[sp].d(T)[sp].d(T)[sp].[moe]([m5C])p.[moe](A)p.[moe](T)p.[moe]([m5C])[sp].[moe]([m5C])}$$$$ (last 3' nucleoside missing)” has a 3 h FOB score of 0 score 0-7. “RNA1{[moe]([m5C])[sp].[moe](A)p.[moe](T)p.[moe](G)p.d(T)[sp].d(A)[sp].d(A)[sp].d([m5C])[sp].d([m5C])[sp].d(T)[sp].d(T)[sp].d(T)[sp].d(A)[sp].d(T)[sp].[moe](A)p.[moe]([m5C])p.[moe](A)p.[moe](T)[sp].[moe](T)}$$$$ (last 3' nucleoside missing)” gave a 3 h FOB score of 0 score 0-7. For “RNA1{[moe]([m5C])[sp].[moe](A)p.[moe](T)p.[moe](G)p.d([m5C])[sp].d(A)[sp].d(T)[sp].d(A)[sp].d(A)[sp].d(T)[sp].d([m5C])[sp].d([m5C])[sp].d([m5C])[sp].d(A)[sp].[moe](T)p.[moe](T)p.[moe](A)p.[moe](T)[sp].[moe](A)}$$$$ (last 3' nucleoside missing)”, the 3 h FOB score was 0 score 0-7. Substance “RNA1{[moe]([m5C])[sp].[moe](A)p.[moe](T)p.[moe](T)p.[moe](T)p.[moe]([m5C])p.d(T)[sp].d(A)[sp].d(T)[sp].d(A)[sp].d(A)[sp].d([m5C])[sp].d(T)[sp].d([m5C])[sp].d(A)[sp].d(G)[sp].[moe]([m5C])p.[moe](A)[sp].[moe](A)}$$$$ (last 3' nucleoside missing)” has a 3 h FOB score of 0 score 0-7. For “RNA1{[moe]([m5C])[sp].[moe](A)p.[moe](T)p.[moe](T)p.[moe](T)p.d([m5C])[sp].d(T)[sp].d(A)[sp].d(T)[sp].d(A)[sp].d(A)[sp].d([m5C])[sp].d(T)[sp].d([m5C])[sp].d(A)[sp].[moe](G)p.[moe]([m5C])p.[moe](A)[sp].[moe](A)}$$$$ (last 3' nucleoside missing)”, the 3 h FOB score was 0 score 0-7. Substance “RNA1{[moe]([m5C])[sp].[moe](A)p.[moe](T)p.[moe](T)p.d(T)[sp].d([m5C])[sp].d(T)[sp].d(A)[sp].d(T)[sp].d(A)[sp].d(A)[sp].d([m5C])[sp].d(T)[sp].d([m5C])[sp].[moe](A)p.[moe](G)p.[moe]([m5C])p.[moe](A)[sp].[moe](A)}$$$$ (last 3' nucleoside missing)” has a 3 h FOB score of 0 score 0-7. Work on “RNA1{[moe]([m5C])[sp].[moe](A)p.[moe]([m5C])p.[moe](G)p.[moe](A)p.[moe]([m5C])p.d(A)[sp].d(T)[sp].d(A)[sp].d(T)[sp].d(T)[sp].d(T)[sp].d(T)[sp].d(T)[sp].d([m5C])[sp].d(T)[sp].[moe](A)p.[moe]([m5C])[sp].[moe](A)}$$$$ (last 3' nucleoside missing)” yielded a 3 h FOB score of 0.5 score 0-7. In the case of “RNA1{[moe]([m5C])[sp].[moe](A)p.[moe]([m5C])p.[moe](G)p.[moe](A)p.d([m5C])[sp].d(A)[sp].d(T)[sp].d(A)[sp].d(T)[sp].d(T)[sp].d(T)[sp].d(T)[sp].d(T)[sp].d([m5C])[sp].[moe](T)p.[moe](A)p.[moe]([m5C])[sp].[moe](A)}$$$$ (last 3' nucleoside missing)”, the 3 h FOB score was 0 score 0-7. In the case of “RNA1{[moe]([m5C])[sp].[moe](A)p.[moe]([m5C])p.[moe](G)p.[moe]([m5C])p.[moe](T)p.d(T)[sp].d(A)[sp].d([m5C])[sp].d(A)[sp].d(T)[sp].d([m5C])[sp].d(A)[sp].d(A)[sp].d(A)[sp].d([m5C])[sp].[moe](A)p.[moe](T)[sp].[moe]([m5C])}$$$$ (last 3' nucleoside missing)”, the 3 h FOB score was 0 score 0-7. “RNA1{[moe]([m5C])[sp].[moe](A)p.[moe]([m5C])p.[moe](G)p.[moe]([m5C])p.d(T)[sp].d(T)[sp].d(A)[sp].d([m5C])[sp].d(A)[sp].d(T)[sp].d([m5C])[sp].d(A)[sp].d(A)[sp].d(A)[sp].[moe]([m5C])p.[moe](A)p.[moe](T)[sp].[moe]([m5C])}$$$$ (last 3' nucleoside missing)” showed a 3 h FOB score of 0 score 0-7. “RNA1{[moe]([m5C])[sp].[moe](A)p.[moe]([m5C])p.[moe](G)p.d(A)[sp].d([m5C])[sp].d(A)[sp].d(T)[sp].d(A)[sp].d(T)[sp].d(T)[sp].d(T)[sp].d(T)[sp].d(T)[sp].[moe]([m5C])p.[moe](T)p.[moe](A)p.[moe]([m5C])[sp].[moe](A)}$$$$ (last 3' nucleoside missing)” was tested, and the 3 h FOB score was 0 score 0-7. In the case of “RNA1{[moe]([m5C])[sp].[moe](A)p.[moe]([m5C])p.[moe](G)p.d([m5C])[sp].d(T)[sp].d(T)[sp].d(A)[sp].d([m5C])[sp].d(A)[sp].d(T)[sp].d([m5C])[sp].d(A)[sp].d(A)[sp].[moe](A)p.[moe]([m5C])p.[moe](A)p.[moe](T)[sp].[moe]([m5C])}$$$$ (last 3' nucleoside missing)”, the 3 h FOB score was 0 score 0-7. For “RNA1{[moe]([m5C])[sp].[moe](G)p.[moe](A)p.[moe](A)p.[moe](T)p.[moe](T)p.d([m5C])[sp].d(T)[sp].d(A)[sp].d(T)[sp].d(T)[sp].d(T)[sp].d(T)[sp].d(A)[sp].d(T)[sp].d(A)[sp].[moe](A)p.[moe](A)[sp].[moe](T)}$$$$ (last 3' nucleoside missing)”, the 3 h FOB score was 2.33 score 0-7. In the case of “RNA1{[moe]([m5C])[sp].[moe](G)p.[moe](A)p.[moe](A)p.[moe](T)p.d(T)[sp].d([m5C])[sp].d(T)[sp].d(A)[sp].d(T)[sp].d(T)[sp].d(T)[sp].d(T)[sp].d(A)[sp].d(T)[sp].[moe](A)p.[moe](A)p.[moe](A)[sp].[moe](T)}$$$$ (last 3' nucleoside missing)”, the 3 h FOB score was 1.67 score 0-7. With “RNA1{[moe]([m5C])[sp].[moe](G)p.[moe](A)p.[moe](A)p.d(T)[sp].d(T)[sp].d([m5C])[sp].d(T)[sp].d(A)[sp].d(T)[sp].d(T)[sp].d(T)[sp].d(T)[sp].d(A)[sp].[moe](T)p.[moe](A)p.[moe](A)p.[moe](A)[sp].[moe](T)}$$$$ (last 3' nucleoside missing)” the 3 h FOB score was 1 score 0-7. “RNA1{[moe]([m5C])[sp].[moe](G)p.[moe](T)p.[moe]([m5C])p.[moe](T)p.d([m5C])[sp].d(T)[sp].d(T)[sp].d(T)[sp].d([m5C])[sp].d(T)[sp].d(T)[sp].d(A)[sp].d(T)[sp].d(T)[sp].[moe](T)p.[moe]([m5C])p.[moe](T)[sp].[moe](G)}$$$$ (last 3' nucleoside missing)” was tested, and the 3 h FOB score was 1 score 0-7. “RNA1{[moe]([m5C])[sp].[moe](G)p.[moe](T)p.[moe]([m5C])p.d(T)[sp].d([m5C])[sp].d(T)[sp].d(T)[sp].d(T)[sp].d([m5C])[sp].d(T)[sp].d(T)[sp].d(A)[sp].d(T)[sp].[moe](T)p.[moe](T)p.[moe]([m5C])p.[moe](T)[sp].[moe](G)}$$$$ (last 3' nucleoside missing)” was tested, and the 3 h FOB score was 1 score 0-7. “RNA1{[moe]([m5C])[sp].[moe](T)p.[moe](A)p.[moe](T)[sp].d(T)[sp].d(T)[sp].d(T)[sp].d(A)[sp].d(T)[sp].d(A)[sp].d(A)[sp].d(A)[sp].[moe](T)p.[moe](G)p.[moe]([m5C])p.[moe]([m5C])[sp].[moe](G)}$$$$ (last 3' nucleoside missing)” was tested, and the 3 h FOB score was 0 score 0-7.
